Data on 2 compounds can be found in patent US20150283287A1, “METHODS AND COMPOSITIONS FOR WOUND HEALING” (IMBED BIOSCIENCES, INC., priority 2012, published 2015).

For one data set, the system named is established biofilms. Conditions: in TSB; cited from earlier work.
Data set [1] concerns P. aeruginosa (ATCC 27853) biofilms. Description: Inhibition of biofilm formation (crystal violet staining). In kind it is cell-based, Pseudomonas aeruginosa. The procedure:
During the development of embodiments of the technology provided herein, experiments were conducted to determine the minimum concentration of Ga (e.g., as Ga(NO3)3) to inhibit biofilm formation. In particular, Ga was added to cultures of Pseudomonas aeruginosa in biofilm growth media (500 μL of 1% tryptic soy broth (TSB)) to test the inhibition of biofilm formation at the bottom of 48-well tissue culture plates.
Biofilm growth arising from suspensions of 10^6 CFU/ml P. aeruginosa (ATCC 27853) was quantified after 24, 48, and 72 hours by staining biofilms with crystal violet, following methods described previously (Brandenburg et al. Tryptophan Inhibits Biofilm Formation by Pseudomonas aeruginosa. Antimicrobial Agents and Chemotherapy. 2013; 57:1921-5).

In the next data set the test system is mammalian cells. Conditions: cited from earlier work.
For a further data set, the system named is incisional wounds. Conditions: in vivo; cited from earlier work.

As for `O=[N+]([O-])[O-].O=[N+]([O-])[O-].O=[N+]([O-])[O-].[Ga+3]` [Ga^3+, Ga(NO3)3], the “Concentration that disperses established biofilms” value in the data set with established biofilms is 100 µM. Besides, the “Effect on free (planktonic) bacterial counts” value in data set [1] (25 μM) is recorded as “not bactericidal”. The “Concentration in solution sufficient to completely inhibit biofilm formation” value in data set [1] (72 hours, 10^6 CFU/ml in 1% TSB) worked out at 25 µM. Also, the “Concentrations not cytotoxic to mammalian cells” value in the data set on mammalian cells is “up to 1 mM”.

In the case of `CC1=C(/C=C/C(C)=C/C=C/C(C)=C/C(=O)O)C(C)(C)CCC1` [tretinoin], in the data set on incisional wounds, the Fibroblastic proliferation entry is “increased” and the Production of collagen result is on record as “diminished”.
